Assay results as given in US20050022267A1, “Methods for Agrobacterium-mediated transformation of dandelion” (priority 2003, published 2005).

System: dandelion leaf explants
Assay: Effect of phyto-hormones on dandelion regeneration: adventitious shoot formation of leaf explants on seedling media
Format: cell-based
Details: for number of regenerated shoots per explant / percentage of leaf explants displaying adventitious shoot formation: four weeks
Method: Dandelion seeds are surface-sterilized in approximately 70% (volume/volume, v/v) ethanol for 30 sec in the bottle. The ethanol is removed and the seeds are soaked in approximately 1% (v/v) bleach with gentle agitation for about 15 minutes. The bleach is poured off and the […] are rinsed thoroughly about 3-4 times with sterilized distilled water. Seeds are germinated and in vitro cultured in the sterile bottles containing seedling medium (Table 1). Over one month-old seedlings are used as stock plants for leaf and root explants. The leaves and roots of stock plants are placed in a petri plate with droplets of sterile water. Explants of leaves (ca. 0.5 cm in diameter) and of roots (ca. 0.5 cm in length) were excised from dandelion plants. Approximately 15 to 20 explants per plate are positioned with the adaxial surface down onto pre-incubation medium (Table 2). The plates are incubated under mixed white and red lights for about 6 days at about 22° C. […] Parentheses indicate the number of regenerated shoots per explant.

[1] = α-naphthalene acetic acid 0.1 mg/L, 6-benzyladenine 0 mg/L
[2] = α-naphthalene acetic acid 0.1 mg/L, kinetin 0 mg/L
[3] = α-naphthalene acetic acid 0.5 mg/L, 6-benzyladenine 0 mg/L
[4] = α-naphthalene acetic acid 0.5 mg/L, kinetin 0 mg/L
[5] = α-naphthalene acetic acid 1.0 mg/L, 6-benzyladenine 0 mg/L
[6] = α-naphthalene acetic acid 1.0 mg/L, kinetin 0 mg/L
[7] = α-naphthalene acetic acid 2.0 mg/L, 6-benzyladenine 0 mg/L
[8] = α-naphthalene acetic acid 2.0 mg/L, kinetin 0 mg/L
[9] = kinetin 0.5 mg/L, α-naphthalene acetic acid 0 mg/L
[10] = kinetin 0.5 mg/L, α-naphthalene acetic acid 0.1 mg/L
[11] = kinetin 0.5 mg/L, α-naphthalene acetic acid 0.5 mg/L
[12] = kinetin 0.5 mg/L, α-naphthalene acetic acid 1.0 mg/L
[13] = kinetin 0.5 mg/L, α-naphthalene acetic acid 2.0 mg/L
[14] = kinetin 1.0 mg/L, α-naphthalene acetic acid 0 mg/L
[15] = kinetin 1.0 mg/L, α-naphthalene acetic acid 0.1 mg/L
[16] = kinetin 1.0 mg/L, α-naphthalene acetic acid 0.5 mg/L
[17] = kinetin 1.0 mg/L, α-naphthalene acetic acid 1.0 mg/L
[18] = kinetin 1.0 mg/L, α-naphthalene acetic acid 2.0 mg/L
[19] = kinetin 2.0 mg/L, α-naphthalene acetic acid 0 mg/L
[20] = kinetin 2.0 mg/L, α-naphthalene acetic acid 0.1 mg/L
[21] = kinetin 2.0 mg/L, α-naphthalene acetic acid 0.5 mg/L
[22] = kinetin 2.0 mg/L, α-naphthalene acetic acid 1.0 mg/L
[23] = kinetin 2.0 mg/L, α-naphthalene acetic acid 2.0 mg/L
[24] = kinetin 3.0 mg/L, α-naphthalene acetic acid 0 mg/L
[25] = kinetin 3.0 mg/L, α-naphthalene acetic acid 0.1 mg/L
[26] = kinetin 3.0 mg/L, α-naphthalene acetic acid 0.5 mg/L
[27] = kinetin 3.0 mg/L, α-naphthalene acetic acid 1.0 mg/L
[28] = kinetin 3.0 mg/L, α-naphthalene acetic acid 2.0 mg/L

For `O=C(O)Cc1cccc2ccccc12` [α-Naphthalene acetic acid, α-naphthalene acetic acid], the “number of regenerated shoots per explant” value [1] was “(0.0) shoots per explant”, the “percentage of leaf explants displaying adventitious shoot formation” value (“percentage” below) [1] was 0.0% and the “number of regenerated shoots per explant” value [2] was “(0.0) shoots per explant”. The “percentage” value [2] was 0.0%, the “number of regenerated shoots per explant” value [3] was “(2.0) shoots per explant” and the “percentage” value [3] was 20.0%. For the same compound, the “number of regenerated shoots per explant” value [4] was “(0.0) shoots per explant”, the “percentage” value [4] was 0.0% and the “number of regenerated shoots per explant” value [5] was “(0.0) shoots per explant”. For the same compound, the “percentage” value [5] was 0.0%, the “number of regenerated shoots per explant” value [6] was “(0.0) shoots per explant” and the “percentage” value [6] was 5.0%. The “number of regenerated shoots per explant” value [7] was “(0.0) shoots per explant”, the “percentage” value [7] was 0.0% and the “number of regenerated shoots per explant” value [8] was “(0.0) shoots per explant”. For the same compound, the “percentage” value [8] was 0.0%.
`c1coc(CNc2ncnc3[nH]cnc23)c1` [Kinetin, kinetin] was tested, and the “suitability for dandelion shoot regeneration” value (0.05 mg/l α-naphthalene acetic acid and 1.0 mg/l kinetin or 0.1 mg/l α-naphthalene acetic acid and 2.0 mg/l kinetin) was “also suitable for dandelion shoot regeneration”, the “number of regenerated shoots per explant” value [9] was “(24.8) shoots per explant” and the “percentage” value [9] was 99.9%. For the same compound, the “number of regenerated shoots per explant” value [10] was “(19.8) shoots per explant”, the “percentage” value [10] was 96.7% and the “number of regenerated shoots per explant” value [11] was “(16.9) shoots per explant”. For the same compound, the “percentage” value [11] was 99.9%, the “number of regenerated shoots per explant” value [12] was “(8.1) shoots per explant” and the “percentage” value [12] was 99.9%. For the same compound, the “number of regenerated shoots per explant” value [13] was “(5.8) shoots per explant”, the “percentage” value [13] was 99.9% and the “number of regenerated shoots per explant” value [14] was “(22.7) shoots per explant”. The “percentage” value [14] was 99.9%, the “number of regenerated shoots per explant” value [15] was “(23.4) shoots per explant” and the “percentage” value [15] was 99.9%. The “number of regenerated shoots per explant” value [16] was “(16.8) shoots per explant”, the “percentage” value [16] was 99.9% and the “number of regenerated shoots per explant” value [17] was “(6.7) shoots per explant”. For the same compound, the “percentage” value [17] was 99.9%, the “number of regenerated shoots per explant” value [18] was “(9.8) shoots per explant” and the “percentage” value [18] was 99.9%. For the same compound, the “number of regenerated shoots per explant” value [19] was “(21.9) shoots per explant”, the “percentage” value [19] was 95.0% and the “number of regenerated shoots per explant” value [20] was “(23.6) shoots per explant”. For the same compound, the “percentage” value [20] was 99.9%, the “number of regenerated shoots per explant” value [21] was “(20.3) shoots per explant” and the “percentage” value [21] was 99.9%. For the same compound, the “number of regenerated shoots per explant” value [22] was “(13.4) shoots per explant”, the “percentage” value [22] was 95.5% and the “number of regenerated shoots per explant” value [23] was “(7.3) shoots per explant”. For the same compound, the “percentage” value [23] was 96.2%, the “number of regenerated shoots per explant” value [24] was “(14.7) shoots per explant” and the “percentage” value [24] was 99.9%. The “number of regenerated shoots per explant” value [25] was “(19.3) shoots per explant”, the “percentage” value [25] was 99.9% and the “number of regenerated shoots per explant” value [26] was “(25.5) shoots per explant”. For the same compound, the “percentage” value [26] was 99.9%, the “number of regenerated shoots per explant” value [27] was “(8.9) shoots per explant” and the “percentage” value [27] was 99.9%. For the same compound, the “number of regenerated shoots per explant” value [28] was “(8.1) shoots per explant” and the “percentage” value [28] was 99.9%.
